Test: method code SF-AS, from PMID: 9631499

logP | Structure (SMILES)
4.28 | Cc1cccc(-c2nnc(CCON=Cc3ccc(Cl)cc3Cl)o2)c1
4.1 | Cc1cccc(-c2nnc(CCON=Cc3ccc(Cl)cc3Cl)[nH]2)c1
4.28 | Cc1ccc(-c2nnc(CCON=Cc3ccc(Cl)cc3Cl)o2)cc1
3.01 | Clc1ccc(C=NOCCc2nnc(-c3ccccc3)o2)cc1
3.72 | Clc1ccc(C=NOCCc2nnc(-c3ccccc3)o2)c(Cl)c1

The remaining lines, values behind:

Structure (SMILES) | logP
Cc1ccc(-c2nnc(CCON=Cc3ccc(Cl)cc3Cl)[nH]2)cc1 | 4.1
Cc1ccc(C=NOCCc2nnc(-c3cccc(C)c3)o2)cc1 | 3.57
Cc1ccc(-c2nnc(CCON=Cc3ccc(Cl)cc3)o2)cc1 | 3.57
Clc1ccc(C=NOCCc2nnc(-c3ccccc3)[nH]2)cc1 | 2.83
Cc1ccc(-c2nnc(CCON=Cc3ccc(Cl)cc3)[nH]2)cc1 | 3.39
Cc1cccc(-c2nnc(CCON=Cc3ccc(Cl)cc3)[nH]2)c1 | 3.39

— the SangsterLogP compilation
